Experimental data taken from ChEMBL document CHEMBL3745698, “α-Aryl-N-aryl nitrones: Synthesis and screening of a new scaffold for cellular protection against an oxidative toxic stimulus” (Bioorg Med Chem, 2016).
Calls of active or inactive are those of the source. No cut-off for these calls is given here.

Test system: SH-SY5Y
Assay: Cytoprotective activity against H2O2-induced toxicity in human SH-SY5Y cells assessed as increase in cell viability at 1 uM preincubated for 24 hrs followed by H2O2 addition measured after 24 hrs by MTT assay relative to control
Assay type: functional
Conditions: not given

**Q.** With `[O-]/[N+](=C\c1ccncc1)c1ccccc1` as the molecule, how does the Activity read?
**A.** Its Activity is 71%.

**Q.** `Cc1ccc(/[N+]([O-])=C/c2ccccc2)cc1C` was tested. Which Activity did it give?
**A.** The Activity was 95%.

**Q.** For `[O-]/[N+](=C\c1ccccc1)c1ccccc1`, which Activity is on record?
**A.** Its Activity is 71%.

**Q.** For `[O-]/[N+](=C\c1ccc2c(c1)OCO2)c1ccccc1`, which Activity is on record?
**A.** The Activity was 71%.

**Q.** How did the Activity turn out when `[O-]/[N+](=C\c1ccncc1)c1ccc(Cl)cc1` was run?
**A.** Its Activity is 71%.

**Q.** How did the Activity turn out when `Cc1ccc(/[N+]([O-])=C/c2ccncc2)cc1C` was run?
**A.** The Activity was 71%.

**Q.** How did the Activity turn out when `Cc1ccc(/[N+]([O-])=C/c2ccc3c(c2)OCO3)cc1C` was run?
**A.** Its Activity is 71%.

**Q.** With `[O-]/[N+](=C\c1ccccc1)c1ccc(Cl)cc1` as the molecule, how does the Activity read?
**A.** The Activity was 71%.

**Q.** For `[O-]/[N+](=C\c1ccc2c(c1)OCO2)c1ccc(Cl)cc1`, which Activity is on record?
**A.** Its Activity is 71%.

Test system: SH-SY5Y
Assay: Cytoprotective activity against H2O2-induced apoptosis in human SH-SY5Y cells assessed as dead cells at 1 uM preincubated for 24 hrs followed by H2O2 addition measured after 24 hrs by annexin V-FITC/propidium iodide staining-based flow cytometric analysis (reference value: 25.81 +/- 3.57%)
Assay type: functional
Conditions: not given

**Q.** Which Activity does the source give for `Cc1ccc(/[N+]([O-])=C/c2ccccc2)cc1C` here?
**A.** The Activity was 9.13%.

**Q.** With `[O-]/[N+](=C\c1ccccc1)c1ccccc1` as the molecule, how does the Activity read?
**A.** The Activity was 3.78%.

**Q.** How did the Activity turn out when `CC(C)(C)/[N+]([O-])=C\c1ccccc1` was run?
**A.** The Activity was 9.42%.

Test system: SH-SY5Y
Assay: (§1) Cytoprotective activity against H2O2-induced apoptosis in human SH-SY5Y cells assessed as late apoptotic cells at 1 uM preincubated for 24 hrs followed by H2O2 addition measured after 24 hrs by annexin V-FITC/propidium iodide staining-based flow cytometric analysis (reference value: 2.78 +/- 0.53%)
Assay type: functional
Conditions: not given

**Q.** How did the Activity turn out when `Cc1ccc(/[N+]([O-])=C/c2ccccc2)cc1C` was run?
**A.** Its Activity is 1.21%.

**Q.** For `[O-]/[N+](=C\c1ccccc1)c1ccccc1`, which Activity is on record?
**A.** The Activity was 1.56%.

**Q.** How did the Activity turn out when `CC(C)(C)/[N+]([O-])=C\c1ccccc1` was run?
**A.** Its Activity is 2.4%.

Test system: SH-SY5Y
Assay: Cytoprotective activity against H2O2-induced apoptosis in human SH-SY5Y cells assessed as viable cells at 1 uM preincubated for 24 hrs followed by H2O2 addition measured after 24 hrs by annexin V-FITC/propidium iodide staining-based flow cytometric analysis (reference value: 71.08 +/- 2.34%)
Assay type: functional
Conditions: read-out: Activity

**Q.** With `Cc1ccc(/[N+]([O-])=C/c2ccccc2)cc1C` as the molecule, how does the viability at 1 µM read?
**A.** Its viability at 1 µM is 85%.

**Q.** How did the viability at 1 µM turn out when `[O-]/[N+](=C\c1ccccc1)c1ccccc1` was run?
**A.** The viability at 1 µM was 85%.

Test system: SH-SY5Y
Assay: Cytoprotective activity against H2O2-induced apoptosis in human SH-SY5Y cells assessed as early apoptotic cells at 1 uM preincubated for 24 hrs followed by H2O2 addition measured after 24 hrs by annexin V-FITC/propidium iodide staining-based flow cytometric analysis relative to control
Assay type: functional
Conditions: not given

**Q.** How did the Activity turn out when `Cc1ccc(/[N+]([O-])=C/c2ccccc2)cc1C` was run?
**A.** Its Activity is 0%.

**Q.** Which Activity does the source give for `[O-]/[N+](=C\c1ccccc1)c1ccccc1` here?
**A.** Its Activity is 0%.

**Q.** `CC(C)(C)/[N+]([O-])=C\c1ccccc1` was tested. Which Activity did it give?
**A.** Its Activity is 0.03%.

Test system: SH-SY5Y
Assay: Cytoprotective activity against H2O2-induced apoptosis in human SH-SY5Y cells assessed as dead cells at 100 nM preincubated for 24 hrs followed by H2O2 addition measured after 24 hrs by annexin V-FITC/propidium iodide staining-based flow cytometric analysis (reference value: 25.81 +/- 3.57%)
Assay type: functional
Conditions: not given

**Q.** How did the Activity turn out when `CN[C@@H]1C[C@H]2O[C@@](C)([C@@H]1OC)n1c3ccccc3c3c4c(c5c6ccccc6n2c5c31)C(=O)NC4` [STAUROSPORINE] was run?
**A.** The Activity was 6.19%.

Test system: SH-SY5Y
Assay: as §1, with “100 nM” for “1 uM”
Assay type: functional
Conditions: not given

**Q.** `CN[C@@H]1C[C@H]2O[C@@](C)([C@@H]1OC)n1c3ccccc3c3c4c(c5c6ccccc6n2c5c31)C(=O)NC4` [STAUROSPORINE] was tested. Which Activity did it give?
**A.** The Activity was 14.49%.

Test system: SH-SY5Y
Assay: Cytoprotective activity against H2O2-induced apoptosis in human SH-SY5Y cells assessed as early apoptotic cells at 100 nM preincubated for 24 hrs followed by H2O2 addition measured after 24 hrs by annexin V-FITC/propidium iodide staining-based flow cytometric analysis relative to control
Assay type: functional
Conditions: not given

**Q.** For `CN[C@@H]1C[C@H]2O[C@@](C)([C@@H]1OC)n1c3ccccc3c3c4c(c5c6ccccc6n2c5c31)C(=O)NC4` [STAUROSPORINE], which Activity is on record?
**A.** Its Activity is 2.63%.

Test system: SH-SY5Y
Assay: Toxicity in H2O2 stressed human SH-SY5Y cells assessed as effect on total glutathione level at 1 uM preincubated for 24 hrs followed by H2O2 addition measured after 24 hrs by spectrophotometric analysis
Assay type: cell-based
Conditions: not given

**Q.** For `Cc1ccc(/[N+]([O-])=C/c2ccccc2)cc1C`, which Activity is on record?
**A.** The Activity was “Non-toxic”.

**Q.** How did the Activity turn out when `[O-]/[N+](=C\c1ccccc1)c1ccccc1` was run?
**A.** Its Activity is “Non-toxic”.

Test system: SH-SY5Y
Assay: Cytoprotective activity against H2O2-induced oxidative stress in human SH-SY5Y cells at 1 uM preincubated for 24 hrs followed by H2O2 addition measured after 24 hrs by DCFHDA dye-based flow cytometric analysis
Assay type: functional, cell-based
Conditions: not given

**Q.** With `Cc1ccc(/[N+]([O-])=C/c2ccccc2)cc1C` as the molecule, how does the Activity read?
**A.** Its Activity is “Active”.

**Q.** Which Activity does the source give for `[O-]/[N+](=C\c1ccccc1)c1ccccc1` here?
**A.** Its Activity is “Active”.

**Q.** With `CC(C)(C)/[N+]([O-])=C\c1ccccc1` as the molecule, how does the Activity read?
**A.** The Activity was “Active”.

Test system: SH-SY5Y
Assay: Cytoprotective activity against H2O2 stressed human SH-SY5Y cells assessed as increase in glutathione level at 1 uM preincubated for 24 hrs followed by H2O2 addition measured after 24 hrs by spectrophotometric analysis
Assay type: functional
Conditions: not given

**Q.** For `Cc1ccc(/[N+]([O-])=C/c2ccccc2)cc1C`, which Activity is on record?
**A.** Its Activity is 65%.

**Q.** For `[O-]/[N+](=C\c1ccccc1)c1ccccc1`, which Activity is on record?
**A.** Its Activity is 65%.

**Q.** How did the Activity turn out when `CC(C)(C)/[N+]([O-])=C\c1ccccc1` was run?
**A.** The Activity was 65%.

Test system: SH-SY5Y
Assay: Cytoprotective activity against H2O2-induced toxicity in human SH-SY5Y cells assessed as increase in cell viability at 1 uM preincubated for 24 hrs followed by H2O2 addition measured after 24 hrs by MTT assay relative to PBN
Assay type: functional
Conditions: not given

**Q.** Which Activity does the source give for `[O-]/[N+](=C\c1ccncc1)c1ccccc1` here?
**A.** The Activity was 42%.

**Q.** For `Cc1ccc(/[N+]([O-])=C/c2ccccc2)cc1C`, which Activity is on record?
**A.** The Activity was 42%.

**Q.** With `[O-]/[N+](=C\c1ccccc1)c1ccccc1` as the molecule, how does the Activity read?
**A.** Its Activity is 42%.

**Q.** `[O-]/[N+](=C\c1ccc2c(c1)OCO2)c1ccccc1` was tested. Which Activity did it give?
**A.** The Activity was 42%.

**Q.** With `[O-]/[N+](=C\c1ccncc1)c1ccc(Cl)cc1` as the molecule, how does the Activity read?
**A.** The Activity was 42%.

**Q.** Which Activity does the source give for `Cc1ccc(/[N+]([O-])=C/c2ccncc2)cc1C` here?
**A.** The Activity was 42%.

**Q.** Which Activity does the source give for `Cc1ccc(/[N+]([O-])=C/c2ccc3c(c2)OCO3)cc1C` here?
**A.** The Activity was 42%.

**Q.** How did the Activity turn out when `[O-]/[N+](=C\c1ccccc1)c1ccc(Cl)cc1` was run?
**A.** The Activity was 42%.

**Q.** How did the Activity turn out when `[O-]/[N+](=C\c1ccc2c(c1)OCO2)c1ccc(Cl)cc1` was run?
**A.** Its Activity is 42%.
